Reference: ChEMBL document CHEMBL5543121, “Drug Repurposing of ACT001 to Discover Novel Promising Sulfide Prodrugs with Improved Safety and Potent Activity for Neutrophil-Mediated Antifungal Immunotherapy” (J Med Chem, 2024)
Calls of active or inactive are those of the source. The rule behind the calls is not given here.

How the values were obtained:
[1] = Volume of distribution at steady state in male Sprague-Dawley rat at 2 mg/kg, iv by LC-MS/MS analysis; format: ADME, organism-based; conditions: in vivo, read-out: Vdss
[2] = molecular target: Signal transducer and activator of transcription 3 (Homo sapiens, UniProt P40763); assay: Binding affinity to His-tagged human recombinant STAT3 assessed as dissociation constant by MST assay
[3] = Acute toxicity in C57BL/6 mouse assessed as effect on ALT level in serum at 500 mg/kg, po administered as single dose and measured every day for 14 days; format: organism-based; conditions: in vivo, 336 h, time 14 day
[4] = Permeability of compound in PBS/EtOH (70:30) buffer incubated for 12 hrs by PAMPA-BBB assay; format: ADME; conditions: read-out: permeability
[5] = Subacute toxicity in C57BL/6 mouse assessed as histopathological changes in heart at 100 mg/kg, po administered daily for 14 days; format: organism-based; conditions: in vivo, 336 h, time 14 day
[6] = test system: Neutrophil; assay: Effect on STAT3 protein level in curdlan induced mouse bone marrow neutrophils at 40 uM measured upto 60 mins by Western blot analysis; format: functional, cell-based
[7] = Cmax in male Sprague-Dawley rat at 10 mg/kg, po by LC-MS/MS analysis; format: ADME, organism-based; conditions: in vivo
[8] = test system: Polymorphonuclear neutrophil; assay: Inhibition of fungal curdlan induced CXCL2 protein expression in mouse polymorphonuclear neutrophils at 40 uM incubated for 4 hrs by ELISA; format: functional, cell-based
[9] = Acute toxicity in C57BL/6 mouse assessed as effect on creatinine level in serum at 500 mg/kg, po administered as single dose and measured every day for 14 days; format: organism-based; conditions: in vivo, 336 h, time 14 day
[10] = test system: Candida albicans; assay: Induction of neutrophil-mediated antifungal immunity against Candida albicans SC5314 infected in mouse assessed as reduction in PD-L1 positive Ly6G positive neutrophils in kidney at 50 to 100 mg/kg, po administered once a day for 3 days by flow cytometry analysis; format: functional, organism-based; conditions: dose 50-100 mg/kg, time 3.0 day

Chain of Signal transducer and activator of transcription 3 (P40763 whole entry): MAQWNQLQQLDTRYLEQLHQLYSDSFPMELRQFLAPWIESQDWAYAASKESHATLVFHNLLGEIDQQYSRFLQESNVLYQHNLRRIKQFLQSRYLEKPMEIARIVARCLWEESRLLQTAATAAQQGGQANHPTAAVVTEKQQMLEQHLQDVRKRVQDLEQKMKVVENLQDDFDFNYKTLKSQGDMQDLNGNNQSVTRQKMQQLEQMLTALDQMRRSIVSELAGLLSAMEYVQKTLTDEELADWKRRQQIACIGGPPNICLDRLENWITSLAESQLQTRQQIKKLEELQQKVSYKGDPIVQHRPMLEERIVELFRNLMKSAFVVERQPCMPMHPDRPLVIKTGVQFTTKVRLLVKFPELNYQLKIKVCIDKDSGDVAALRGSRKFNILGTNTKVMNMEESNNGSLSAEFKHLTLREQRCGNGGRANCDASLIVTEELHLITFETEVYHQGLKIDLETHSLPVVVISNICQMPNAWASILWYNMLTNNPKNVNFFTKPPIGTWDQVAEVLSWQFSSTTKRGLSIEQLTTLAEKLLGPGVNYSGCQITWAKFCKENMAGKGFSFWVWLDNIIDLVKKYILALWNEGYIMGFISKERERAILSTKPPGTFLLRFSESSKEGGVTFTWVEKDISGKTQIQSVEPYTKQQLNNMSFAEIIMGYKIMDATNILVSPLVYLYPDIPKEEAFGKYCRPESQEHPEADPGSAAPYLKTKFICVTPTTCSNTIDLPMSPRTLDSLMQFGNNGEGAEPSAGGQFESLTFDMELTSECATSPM

## C[C@@]1(O)CC[C@]23O[C@@]2(C)CC[C@@H]2[C@H](OC(=O)[C@H]2CS(=O)(=O)c2c(Cl)cccc2Cl)[C@@H]13
[1]
  Vd: 7.46 L/kg
[2]
  Kd: 90.5 nM
[3]
  Activity: Non-Toxic
[4]
  Papp at 12 h: 1.22 ×10⁻⁶ cm/s
[5]
  Activity: Non-Toxic
[6]
  Activity: inactive
[7]
  Cmax: 114 ng/mL
[8]
  inhibition: Active
[9]
  Activity: Non-Toxic
[10]
  Activity: Active
